Drawing on patent US20100029619A1, “FUSED HETEROCYCLIC COMPOUND” (TAKEDA PHARMACEUTICAL COMPANY LIMTED, priority 2006, published 2010), this text covers melting point for 25 molecules.

Molecules are shown by their SMILES.

By melting point is commonly meant the temperature of the solid-liquid transition. `Cc1cccc2nc(NC(=O)c3ccc(C(C)(C)CCC(=O)O)cc3)cn12` [Example 187, 4-methyl-4-(4-{[(5-methylimidazo[1,2-a]pyridin-2-yl)amino]carbonyl}phenyl)pentanoic acid]: the melting point came to 260 °C.
The result for `Cc1cccc2nc(NC(=O)c3ccc(C4(C(=O)O)CCC4)cc3)cn12` [Example 188, 1-{4-[(5-methylimidazo[1,2-a]pyridin-2-yl)carbamoyl]phenyl}cyclobutanecarboxylic acid] reads 272 °C; that for `O=C(Nc1cn2cc(Cl)ccc2n1)c1ccc(C2(C(=O)O)CC2)cc1` [Example 189, 1-{4-[(6-chloroimidazo[1,2-a]pyridin-2-yl)carbamoyl]phenyl}cyclopropanecarboxylic acid], 330 to 331 °C; that for `O=C(Nc1cn2cc(Cl)ccc2n1)c1ccc(C2(C(=O)O)CCC2)cc1` [Example 190, 1-{4-[(6-chloroimidazo[1,2-a]pyridin-2-yl)carbamoyl]phenyl}cyclobutanecarboxylic acid], 317.7 °C (dec.).
Regarding `O=C(Nc1cn2cc(Cl)ccc2n1)c1ccc(C2(C(=O)O)CCCC2)cc1` [Example 191, 1-{4-[(6-chloroimidazo[1,2-a]pyridin-2-yl)carbamoyl]phenyl}cyclopentanecarboxylic acid], the melting point was 313 °C (dec.).
The result for `O=C(Nc1cn2cc(Cl)ccc2n1)c1ccc(C2(C(=O)O)CCCCC2)cc1` [Example 192, 1-(4-{[(6-chloroimidazo[1,2-a]pyridin-2-yl)amino]carbonyl}phenyl)cyclohexanecarboxylic acid] reads 288 °C; that for `CC(C)(C)c1ccc(C(=O)Nc2cn3c(CO)cccc3n2)cc1` [Example 194, 4-tert-butyl-N-[5-(hydroxymethyl)imidazo[1,2-a]pyridin-2-yl]benzamide], 229 to 230 °C; that for `CC(C)(CCc1noc(=O)[nH]1)c1ccc(C(=O)Nc2cn3cc(-n4ccnc4)ccc3n2)cc1` [Example 437, 4-[1,1-dimethyl-3-(5-oxo-4,5-dihydro-1,2,4-oxadiazol-3-yl)propyl]-N-[6-(1H-imidazol-1-yl)imidazo[1,2-a]pyridin-2-yl]benzamide], 283 to 284 °C.
`Cc1ccc2nc(NC(=O)c3ccc(C(C)(C)CCC#N)cc3)cn2c1` [Example 438, 4-(3-cyano-1,1-dimethylpropyl)-N-(6-methylimidazo[1,2-a]pyridin-2-yl)benzamide] came in with a melting point of 194 to 195 °C.
The result for `Cc1ccc2nc(NC(=O)c3ccc(C(C)(C)CCc4nnn[nH]4)cc3)cn2c1` [Example 439, 4-[1,1-dimethyl-3-(1H-tetrazol-5-yl)propyl]-N-(6-methylimidazo[1,2-a]pyridin-2-yl)benzamide] reads 245 to 246 °C.
`Cc1ccc2nc(NC(=O)c3ccc(C(C)(C)CCc4noc(=O)[nH]4)cc3)cn2c1` [Example 440, 4-[1,1-dimethyl-3-(5-oxo-4,5-dihydro-1,2,4-oxadiazol-3-yl)propyl]-N-(6-methylimidazo[1,2-a]pyridin-2-yl)benzamide] showed a melting point of 267 to 268 °C.
Take `CC(C)(CCC#N)c1ccc(C(=O)Nc2cn3c4c(ccc3n2)OCC4)cc1` [Example 441, 4-(3-cyano-1,1-dimethylpropyl)-N-(1,2-dihydrofuro[2,3-e]imidazo[1,2-a]pyridin-7-yl)benzamide]: the melting point lay in the range of 227 to 228 °C.
As for `CC(C)(CCC#N)c1ccc(C(=O)Nc2cn3cc(C(F)(F)F)ccc3n2)cc1` [Example 445, 4-(3-cyano-1,1-dimethylpropyl)-N-[6-(trifluoromethyl)imidazo[1,2-a]pyridin-2-yl]benzamide], the melting point was 233 to 234 °C.
`CC(C)(CCc1noc(=O)[nH]1)c1ccc(C(=O)Nc2cn3cc(C(F)(F)F)ccc3n2)cc1` [Example 447, 4-[1,1-dimethyl-3-(5-oxo-4,5-dihydro-1,2,4-oxadiazol-3-yl)propyl]-N-[6-(trifluoromethyl)imidazo[1,2-a]pyridin-2-yl]benzamide]: the melting point is 268 to 270 °C.
The result for `CC(C)(CNC(=O)C(O)CO)c1ccc(C(=O)Nc2cn3cc(Cl)ccc3n2)cc1` (stereo not shown) [Example 450, N-(6-chloroimidazo[1,2-a]pyridin-2-yl)-4-[2-(glyceroylamino)-1,1-dimethylethyl]benzamide] reads 228 to 229 °C; that for `CC(C)(CNC(=O)Cc1cnc[nH]1)c1ccc(C(=O)Nc2cn3cc(Cl)ccc3n2)cc1` [Example 451, N-(6-chloroimidazo[1,2-a]pyridin-2-yl)-4-{2-[(1H-imidazol-5-ylacetyl)amino]-1,1-dimethylethyl}benzamide], 270 °C (dec.).
For the molecule `CC(C)(C)c1ccc(C(=O)Nc2cn3cc(C(F)(F)F)ccc3n2)cc1` [Example 452, 4-tert-butyl-N-[6-(trifluoromethyl)imidazo[1,2-a]pyridin-2-yl]benzamide], the melting point is 234 to 235 °C.
For `CC(C)(C(=O)NCC(O)CO)c1ccc(C(=O)Nc2cn3cc(Cl)ccc3n2)cc1` (stereo not shown) [Example 454, N-(6-chloroimidazo[1,2-a]pyridin-2-yl)-4-{2-[(2,3-dihydroxypropyl)amino]-1,1-dimethyl-2-oxoethyl}benzamide], the melting point lay in the range of 198 to 199 °C.
Molecule `CC(C)(C#N)c1ccc(C(=O)Nc2cn3cc(C(F)(F)F)ccc3n2)cc1` [Example 455, 4-(1-cyano-1-methylethyl)-N-[6-(trifluoromethyl)imidazo[1,2-a]pyridin-2-yl]benzamide] registered a melting point of 230 to 231 °C.
On to `CC(C)(CNC(=O)c1c[nH]cn1)c1ccc(C(=O)Nc2cn3cc(C(F)(F)F)ccc3n2)cc1` [Example 456, N-[2-methyl-2-(4-{[6-(trifluoromethyl)imidazo[1,2-a]pyridin-2-yl]carbamoyl}phenyl)propyl]-1H-imidazole-4(5)-carboxamide], for which the melting point is 174 to 176 °C.
Turning to `CC(C)(CNC(=O)c1ncc[nH]1)c1ccc(C(=O)Nc2cn3cc(C(F)(F)F)ccc3n2)cc1` [Example 457, N-[2-methyl-2-(4-{[6-(trifluoromethyl)imidazo[1,2-a]pyridin-2-yl]carbamoyl}phenyl)propyl]-1H-imidazole-2-carboxamide], the melting point fell in the range of 292 to 293 °C.
`CC(C)(CNC(=O)Cc1cnc[nH]1)c1ccc(C(=O)Nc2cn3cc(C(F)(F)F)ccc3n2)cc1` [Example 458, 4-{2-[(1H-imidazol-5-ylacetyl)amino]-1,1-dimethylethyl}-N-[6-(trifluoromethyl)imidazo[1,2-a]pyridin-2-yl]benzamide] had a melting point of 261 to 263 °C.
The figure for `CC(C)(CCO)c1ccc(C(=O)Nc2cn3cc(C(F)(F)F)ccc3n2)cc1` [Example 459, 4-(3-hydroxy-1,1-dimethylpropyl)-N-[6-(trifluoromethyl)imidazo[1,2-a]pyridin-2-yl]benzamide] is 152 to 153 °C.
Consider `CC(C)(CO)c1ccc(C(=O)Nc2cn3cc(C(F)(F)F)ccc3n2)cc1` [Example 461, 4-(2-hydroxy-1,1-dimethylethyl)-N-[6-(trifluoromethyl)imidazo[1,2-a]pyridin-2-yl]benzamide], for which the melting point was in the range of 227 to 229 °C.
For the molecule `Cn1cc(-c2ccc3nc(NC(=O)c4ccc(C(C)(C)CO)cc4)cn3c2)cn1` [Example 462, 4-(2-hydroxy-1,1-dimethylethyl)-N-[6-(1-methyl-1H-pyrazol-4-yl)imidazo[1,2-a]pyridin-2-yl]benzamide], the melting point is 275 to 277 °C.
